# Results: US20110300198A1, “HYDROCOLLOID - ESSENTIAL OIL PATCHES” (priority 2010, published 2011)
# Several values for one entry are separate records, joined by “and”; a condition that tells them apart may be missing. Identical values can stand only once. Marks after values point to notes of the source that are not given here.
# Columns and labels:
# [1] = Ex-vivo transfer of essential-oil constituents through the skin in Franz diffusion cells; assay type: in vitro ADME, rat; settings: for Accumulated concentration transferred through the skin: from gum karaya-Lavandula angustifolia essential oil patch (7.5% oil); for Accumulated concentration diffused through the skin: mixture of Lavandula angustifolia essential oil and almond oil rubbed on the skin
# Method: Ex-vivo release studies were performed in Franz diffusion cells (FCs) (PermeGear, Hellertown, Pa.). Stomach skin pieces (1.2 cm×1.2 cm) from a male rat, which were stored in the freezer for 1 month, were thawed at room temperature and placed in glass FCs. The surface area for absorption was 0.64 cm2. The FCs were thermoregulated with a water jacket at 32° C. The 4.5-ml volume of the receptor chamber of the FC was filled with a receptor solution containing 5% (w/v) bovine serum albumin (BSA) diluted with phosphate buffer pH 7.4. […] The receptor solution was continuously agitated with a magnetic stirrer. During the experiments, the donor compartments and sampling arms were sealed to prevent evaporation. The fluid in the receptor chamber was removed after different periods of time (0, 6, 12, 24, 36 and 48 h) and replaced with fresh phosphate buffer solution. Samples were stored at 4° C. after sampling, prior to analysis. Samples were analyzed in a gas chromatograph (Agilent Technologies, Santa Clara, Calif.) with a WAX 30 m×0.32 mm×0.25 μm (Agilent) column.
# Transdermal delivery of essential-oil components through rat skin from both lavender essential oil, which includes a high proportion of terpenoids, and Valencia orange essential oil, which includes a considerable amount of terpene, entrapped within gum-karaya-based patches, was examined. In addition to the regular patch adhered to the skin to be tested for essential-oil delivery by the traditional FCs and by in vivo tests (detailed below), another experiment was performed in which the skin was smeared with an almond-essential oil mixture, in order to partially imitate the situation in which the skin is massaged in an aromatherapy session. All experiments were conducted at ambient temperature and the inclusion of the essential oil as part of the almond oil-essential oil mixture (for the massage-like simulation) was equal in quantity and proportion to the inclusion of essential oil within the patch.
# [2] = cited from earlier work
# [3] = cited from earlier work; remark: listed apart in the source
# [4] = Extraction of lavender essential oil constituents from the skin after patch application; assay type: in vivo; settings: male, Sprague-Dawley, rat, 7.5 % lavender oil in patch, skin under 7.5% lavender oil patch, removed after 60 h, read-out: Concentration extracted from the skin
# Text: Male Sprague-Dawley rats, weighing 300-350 g, were used in the studies (Harlan, Rehovot, Israel). The experimental protocols were approved by the Hebrew University of Jerusalem Committee on the Use and Care of Animals. Rats were maintained under specified-pathogen-free (SPF) conditions and were allowed to acclimate to the environment for at least 7 days before their use in the study. Rats were anesthetized and the fur on their stomach shaved prior to exposure. Gum karaya patches with and without lavender essential oil were applied to the rat's stomach skin. Each rat was housed in an individual cage in order to prevent oral contamination of the essential oil by one rat eating another's patch. Blood samples (0.5 ml) were taken at 0, 12, 24, 36, 48 and 60 h from a nick at the tip of tail to determine contents of essential-oil components. Rats were restrained and the tail was gently massaged to facilitate blood collection. Blood samples were collected in vials containing 0.1 ml heparin (100 kU, Sigma). […] Urine samples were similarly analyzed by gas chromatography (GC).
# Skin to which patches with or without lavender essential oil were adhered were sampled for extraction. […] When a control patch was adhered to the skin, no constituents of lavender essential oil were detected. […]
# [5] = In-vivo experiment with HP-5 column, constituents in blood; set-up: species or system rat
# Text: Male Sprague-Dawley rats, weighing 300-350 g, were used in the studies (Harlan, Rehovot, Israel). The experimental protocols were approved by the Hebrew University of Jerusalem Committee on the Use and Care of Animals. Rats were maintained under specified-pathogen-free (SPF) conditions and were allowed to acclimate to the environment for at least 7 days before their use in the study. Rats were anesthetized and the fur on their stomach shaved prior to exposure. Gum karaya patches with and without lavender essential oil were applied to the rat's stomach skin. Each rat was housed in an individual cage in order to prevent oral contamination of the essential oil by one rat eating another's patch. Blood samples (0.5 ml) were taken at 0, 12, 24, 36, 48 and 60 h from a nick at the tip of tail to determine contents of essential-oil components. Rats were restrained and the tail was gently massaged to facilitate blood collection. Blood samples were collected in vials containing 0.1 ml heparin (100 kU, Sigma). A 10-μl volume of aqueous linalyl isovalerate stock solution was added as an internal standard to each blood sample and samples were stored at −80° C. After 60 h, patches were removed and the application site was wiped with 70% alcohol. Animals were sacrificed and the patch of stomach skin to which the essential oil patch had been applied was removed and minced into small pieces. The skin pieces were placed in 1 ml of ethanol containing linalyl isovalerate as the internal standard and sonicated for 30 min after heating to 50° C. A 10-μl aliquot was then injected straight into the gas chromatograph. A urine sample (0.5 ml) was obtained from the bladder immediately after sacrifice. Urine samples were similarly analyzed by gas chromatography (GC).
# Blood (0.5 ml) or phosphate buffer (0.5 ml) was collected at t=0, 12, 24, 36, 48 and 60 h. Blood samples were placed in Eppendorf heparin-coated glass vials (Agilent) by heparin-washed syringe, which were sealed with septa and screw caps. Each vial contained 100 μl of heparin and blood samples were frozen at −80° C. for storage. Prior to analysis, the blood or phosphate buffer was thawed to room temperature, a 10-μl volume of internal standards (6.5 mg linalyl isovalerate and 6.5 mg geranyl formate in 25 ml acetonitrile) was added to the vial and then the mixture was vortexed. The vials were tightly capped using a clear cap with septum. The septa were pre-punctured immediately before analysis using a needle to facilitate the insertion of the fiber sheath. The fiber sheath was inserted through the septum, and positioned to expose the fiber in the center of the headspace. The vial was placed on a heating block to maintain temperature at a constant 50° C. and the solid-phase microextraction (SPME) assembly was clamped securely. Absorption time was 30 min. No stirring was required. After absorption, the SPME fiber sheath was immediately transferred to the GC injector for desorption for 5 min and GC analysis.
# GC was performed on an Agilent 7890A gas chromatograph equipped with a split/splitless capillary injector, flame ionization detection (FID) system and GC Chem Station (Version B.03.01; Agilent Technologies 2007). Chromatography was carried out on a WAX or HP-5 column (30 m×0.32 mm×0.25 μm). The GC operating conditions were: splitless or split 1:40 injector 240° C., oven 50° C. for 1 min and then 10° C. min^−1 to 160° C., then 25° C. min^−1 to 240° C. and held for 6 min; the carrier gas was hydrogen.
# In this experiment, patches containing lavender essential oil were adhered to the abdomen area. Patches without essential oil served as blanks. […] Detection under splitless conditions facilitated the detection of linalyl acetate, linalool, camphor, borneol and α-terpineol, the latter two being additional constituents detected only under these conditions. High concentrations of linalool, borneol and camphor were detected, in comparison to low levels of terpeneol and linalyl acetate. […]
# [6] = male, Sprague-Dawley, rat, in vivo
SMILES,"% diffused (of initial amount of entrapped essential oil) ([1]; Almond-lavandula mixture, 0 h)","% diffused (of initial amount of entrapped essential oil) ([1]; Almond-lavandula mixture, 6 h)","% diffused (of initial amount of entrapped essential oil) ([1]; Almond-lavandula mixture, 12 h)","% diffused (of initial amount of entrapped essential oil) ([1]; Almond-lavandula mixture, 24 h)","% diffused (of initial amount of entrapped essential oil) ([1]; Lavandula patch, 0 h)","% diffused (of initial amount of entrapped essential oil) ([1]; Lavandula patch, 6 h)","% diffused (of initial amount of entrapped essential oil) ([1]; Lavandula patch, 12 h)",Accumulated concentration transferred through the skin ([1]; 6 h),Accumulated concentration transferred through the skin ([1]; 12 h),Accumulated concentration transferred through the skin ([1]; 24 h),Accumulated concentration diffused through the skin ([1]; 6 h),Accumulated concentration diffused through the skin ([1]; 12 h),Accumulated concentration diffused through the skin ([1]; 24 h),Log P [2],Solubility in water [3],further results
C=CC(C)(CCC=C(C)C)OC(C)=O (stereo not drawn) [Linalyl acetate],0.00^a %,0.107 ± 0.150^a %,0.153 ± 0.216^a %,0.246 ± 0.344^a %,0.00^a %,0.008 ± 0.011^a %,0.013 ± 0.018^a %,0.15 ± 0.14^a mg/L,0.26 ± 0.25^a mg/L,0.37 ± 0.01^a mg/L,2.30 ± 2.24^a mg L^−1,3.33 ± 3.23^a mg L^−1,5.62 ± 4.10^a mg L^−1,about 4,relatively low,"concentration at 60 h ([4]; in vivo, ethanol extract): 241 ng/mL; Concentration observed in the blood ([5]; quoted for comparison with the skin extract): 9 ng/mL"
C=CC(C)(O)CCC=C(C)C (stereo not drawn) [Linalool],0.00^a %,1.29 ± 1.53^a %,2.01 ± 2.09^a %,3.93% and 3.93 ± 0.01^a %,0.00^a %,0.73 ± 0.16^b %,1.53 ± 0.03^c %,16.49 ± 2.81^a mg/L,34.46 ± 1.20^b mg/L,61.64 ± 3.83^c mg/L,31.07 ± 36.72^a mg L^−1,48.34 ± 50.41^a mg L^−1,94.78 ± 0.19^a mg L^−1,about 3,relatively high,"% diffused (of initial amount of entrapped essential oil) ([1]; Lavandula patch, 24 h): 2.74 ± 0.31^d %; Calculated steady-state flux ([1]; rubbing in a mixture with almond oil): 0.027 mg.cm^−2 h^−1; Calculated steady-state flux ([1]; transferred from a lavender essential oil patch): 0.018 mg.cm^2 h^−1; concentration at 60 h ([4]; skin (ethanol extract of the application site), topical): 62 ng/mL; Concentration observed in the blood [5, 6]: 99 ng/mL; Highest value in blood [5, 6]: 0.099 mg/L; concentration at 60 h [5, 6]: 53 ng/mL"
